Test results as given in PMC6211230, “Assessment of the antiproliferative and apoptotic roles of sulfonamide carbonic anhydrase IX inhibitors in HeLa cancer cell line” (Journal of Enzyme Inhibition and Medicinal Chemistry, 2018).

Experiments:
Assay type in all cases: cell-based, human
HeLa = test: WST-1 cytotoxicity, HeLa
Procedure: (§1) Cancer and normal cell lines were purchased from ATCC and stored in liquid nitrogen. HT-29 (colon adenoma cancer), HeLa (cervix adenoma cancer cell), MDA-MB-231 (breast adenoma cancer cell) and HEK-293 (embryonic kidney epithelial cell), PNT-1A (normal prostate cells) cell lines were incubated in DMEM: F-12 and RPMI-1640, including 10% Foetal Bovine Serum (FBS), 100 μg/mL streptomycin/100 IU/mL penicillin, at 37 °C in an incubator containing 5% CO2, 95% air in a humid atmosphere.
(§2) The cytotoxic effects of the substances were evaluated with WST-1 kits (Roche, Germany) in accordance with the manufacturer’s protocols. The cells were plated on 96-well plates (10^4 cells in each well). After incubation for 24 h, the media were discarded and the substances and Cisplatin as the control drug, at doses of 0, 2.5, 5, 10, 25, 50, 100, and 200 μM, were incubated for 24, 48, and 72 h. WST-1 reactive of 10 µl was added to all wells. Following 4 h incubation, the measurements were taken on a plate reader (Spectramax M5) at wavelengths of 450 and 630 nm. Graphs were then created and the IC50 value of each substance was calculated.

HT-29 = test: WST-1 cytotoxicity, HT-29
Procedure: as §1, §2

MDA-MB-231 = test: WST-1 cytotoxicity, MDA-MB-231
Procedure: as §1, §2

HEK-293 = test: WST-1 cytotoxicity, HEK-293 normal cells; details: HEK-293 normal cell
Procedure: as §1, §2

PNT-1A = test: WST-1 cytotoxicity, PNT-1A normal cells; details: PNT-1A normal cell
Procedure: as §1, §2

`NS(=O)(=O)c1ccc(CCNCc2cc(Cl)cc(Cl)c2O)cc1` [Compound B-2] was tested, and the IC50 (HeLa; 24 h) was 234 µM, the IC50 (HeLa; 48 h) was 212 µM and the IC50 (HeLa; 72 h) was 154 µM. It also gave an IC50 (HT-29; HT-29, 24 h) of 356 µM, an IC50 (HT-29; HT-29, 48 h) of 200 µM and an IC50 (HT-29; HT-29, 72 h) of 155 µM. It also gave an IC50 (MDA-MB-231; MDA-MB-231, 24 h) of 145 µM, an IC50 (MDA-MB-231; MDA-MB-231, 48 h) of 43.3 µM and an IC50 (MDA-MB-231; MDA-MB-231, 72 h) of 54.3 µM. It also gave an IC50 (HEK-293; 24 h) of 230 µM, an IC50 (HEK-293; 48 h) of 215 µM and an IC50 (HEK-293; 72 h) of 120 µM. The IC50 (PNT-1A; 24 h) was 55.4 µM, the IC50 (PNT-1A; 48 h) was 23.2 µM and the IC50 (PNT-1A; 72 h) was 12.3 µM.

With `N.N.[Cl][Pt][Cl]` [Cisplatin, reference compound] the IC50 (HeLa; 24 h) was 28.9 µM, the IC50 (HeLa; 48 h) was 7.6 µM and the IC50 (HeLa; 72 h) was 6.1 µM. For the same molecule, the IC50 (HT-29; HT-29, 24 h) was 23.7 µM, the IC50 (HT-29; HT-29, 48 h) was 20 µM and the IC50 (HT-29; HT-29, 72 h) was 16.3 µM. For the same molecule, the IC50 (MDA-MB-231; MDA-MB-231, 24 h) was 21.2 µM, the IC50 (MDA-MB-231; MDA-MB-231, 48 h) was 10.2 µM and the IC50 (MDA-MB-231; MDA-MB-231, 72 h) was 7 µM. For the same molecule, the IC50 (HEK-293; 24 h) was 29.6 µM, the IC50 (HEK-293; 48 h) was 14 µM and the IC50 (HEK-293; 72 h) was 2 µM. It also gave an IC50 (PNT-1A; 24 h) of 13.4 µM, an IC50 (PNT-1A; 48 h) of 11.4 µM and an IC50 (PNT-1A; 72 h) of 8.2 µM.

In the case of `NS(=O)(=O)c1ccc(CCNCc2cc(Cl)ccc2O)cc1` [Compound B-1], the IC50 (HeLa; 24 h) is reported as 218 µM, the IC50 (HeLa; 48 h) is reported as 112 µM and the IC50 (HeLa; 72 h) is reported as 98.9 µM. For the same molecule, the IC50 (HT-29; HT-29, 24 h) was 606 µM, the IC50 (HT-29; HT-29, 48 h) was 63.8 µM and the IC50 (HT-29; HT-29, 72 h) was 91.8 µM. It also gave an IC50 (MDA-MB-231; MDA-MB-231, 24 h) of 492 µM, an IC50 (MDA-MB-231; MDA-MB-231, 48 h) of 595 µM and an IC50 (MDA-MB-231; MDA-MB-231, 72 h) of 243 µM. For the same molecule, the IC50 (HEK-293; 24 h) was 324 µM, the IC50 (HEK-293; 48 h) was 207 µM and the IC50 (HEK-293; 72 h) was 63.7 µM. The IC50 (PNT-1A; 24 h) was 593 µM, the IC50 (PNT-1A; 48 h) was 190 µM and the IC50 (PNT-1A; 72 h) was 372 µM.

Molecule `NS(=O)(=O)c1ccc(CCNCc2ccccc2O)cc1` [Compound B-3] has an IC50 (HeLa; 24 h) of 156 µM, an IC50 (HeLa; 48 h) of 134 µM and an IC50 (HeLa; 72 h) of 45.4 µM. It also gave an IC50 (HT-29; HT-29, 24 h) of 560 µM, an IC50 (HT-29; HT-29, 48 h) of 450 µM and an IC50 (HT-29; HT-29, 72 h) of 210 µM. The IC50 (MDA-MB-231; MDA-MB-231, 24 h) was 345 µM, the IC50 (MDA-MB-231; MDA-MB-231, 48 h) was 234 µM and the IC50 (MDA-MB-231; MDA-MB-231, 72 h) was 126 µM. The IC50 (HEK-293; 24 h) was 179 µM, the IC50 (HEK-293; 48 h) was 120 µM and the IC50 (HEK-293; 72 h) was 45.4 µM. The IC50 (PNT-1A; 24 h) was 100 µM, the IC50 (PNT-1A; 48 h) was 89.4 µM and the IC50 (PNT-1A; 72 h) was 70.4 µM.

`NS(=O)(=O)c1ccc(CCN=Cc2ccccc2O)cc1` [Compound A-3] was tested, and the IC50 (HeLa; 24 h) was 123 µM, the IC50 (HeLa; 48 h) was 112 µM and the IC50 (HeLa; 72 h) was 76.5 µM. It also gave an IC50 (HT-29; HT-29, 24 h) of 143 µM, an IC50 (HT-29; HT-29, 48 h) of 100 µM and an IC50 (HT-29; HT-29, 72 h) of 87.4 µM. For the same molecule, the IC50 (MDA-MB-231; MDA-MB-231, 24 h) was 98.5 µM, the IC50 (MDA-MB-231; MDA-MB-231, 48 h) was 80.5 µM and the IC50 (MDA-MB-231; MDA-MB-231, 72 h) was 65.4 µM. It also gave an IC50 (HEK-293; 24 h) of 98.4 µM, an IC50 (HEK-293; 48 h) of 65.4 µM and an IC50 (HEK-293; 72 h) of 32.2 µM. It also gave an IC50 (PNT-1A; 24 h) of 45.4 µM, an IC50 (PNT-1A; 48 h) of 43.3 µM and an IC50 (PNT-1A; 72 h) of 23.3 µM.

`NS(=O)(=O)c1ccc(CCN=Cc2cc(Cl)cc(Cl)c2O)cc1` [Compound A-2] showed an IC50 (HeLa; 24 h) of 345 µM, an IC50 (HeLa; 48 h) of 300 µM and an IC50 (HeLa; 72 h) of 123 µM. For the same molecule, the IC50 (HT-29; HT-29, 24 h) was 234 µM, the IC50 (HT-29; HT-29, 48 h) was 254 µM and the IC50 (HT-29; HT-29, 72 h) was 134 µM. The IC50 (MDA-MB-231; MDA-MB-231, 24 h) was 125 µM, the IC50 (MDA-MB-231; MDA-MB-231, 48 h) was 145 µM and the IC50 (MDA-MB-231; MDA-MB-231, 72 h) was 100 µM. The IC50 (HEK-293; 24 h) was 120 µM, the IC50 (HEK-293; 48 h) was 100 µM and the IC50 (HEK-293; 72 h) was 65.4 µM. For the same molecule, the IC50 (PNT-1A; 24 h) was 167 µM, the IC50 (PNT-1A; 48 h) was 170 µM and the IC50 (PNT-1A; 72 h) was 100 µM.
